Measured values taken from ChEMBL document CHEMBL4257501, “Discovery of novel picolinamide-based derivatives as novel VEGFR-2 kinase inhibitors: synthesis, in vitro biological evaluation and molecular docking” (Medchemcomm, 2018).

Columns and labels:
[1] = system: A549; test: Antiproliferative activity against VEGF-stimulated human A549 cells after 48 hrs by CCK8 assay; format: functional, cell-based; settings: A549, 48 h
[2] = system: HepG2; test: Antiproliferative activity against VEGF-stimulated human HepG2 cells after 48 hrs by CCK8 assay; format: functional, cell-based; settings: HepG2, 48 h
[3] = Selectivity ratio of IC50 for VEGF-stimulated human HepG2 cells to IC50 for VEGF-stimulated human A549 cells; format: functional
[4] = biological target: Vascular endothelial growth factor receptor 2 (Homo sapiens, UniProt P35968); test: biochemical; format: cell-based, Sf9
Sequence of Vascular endothelial growth factor receptor 2 (P35968 whole entry): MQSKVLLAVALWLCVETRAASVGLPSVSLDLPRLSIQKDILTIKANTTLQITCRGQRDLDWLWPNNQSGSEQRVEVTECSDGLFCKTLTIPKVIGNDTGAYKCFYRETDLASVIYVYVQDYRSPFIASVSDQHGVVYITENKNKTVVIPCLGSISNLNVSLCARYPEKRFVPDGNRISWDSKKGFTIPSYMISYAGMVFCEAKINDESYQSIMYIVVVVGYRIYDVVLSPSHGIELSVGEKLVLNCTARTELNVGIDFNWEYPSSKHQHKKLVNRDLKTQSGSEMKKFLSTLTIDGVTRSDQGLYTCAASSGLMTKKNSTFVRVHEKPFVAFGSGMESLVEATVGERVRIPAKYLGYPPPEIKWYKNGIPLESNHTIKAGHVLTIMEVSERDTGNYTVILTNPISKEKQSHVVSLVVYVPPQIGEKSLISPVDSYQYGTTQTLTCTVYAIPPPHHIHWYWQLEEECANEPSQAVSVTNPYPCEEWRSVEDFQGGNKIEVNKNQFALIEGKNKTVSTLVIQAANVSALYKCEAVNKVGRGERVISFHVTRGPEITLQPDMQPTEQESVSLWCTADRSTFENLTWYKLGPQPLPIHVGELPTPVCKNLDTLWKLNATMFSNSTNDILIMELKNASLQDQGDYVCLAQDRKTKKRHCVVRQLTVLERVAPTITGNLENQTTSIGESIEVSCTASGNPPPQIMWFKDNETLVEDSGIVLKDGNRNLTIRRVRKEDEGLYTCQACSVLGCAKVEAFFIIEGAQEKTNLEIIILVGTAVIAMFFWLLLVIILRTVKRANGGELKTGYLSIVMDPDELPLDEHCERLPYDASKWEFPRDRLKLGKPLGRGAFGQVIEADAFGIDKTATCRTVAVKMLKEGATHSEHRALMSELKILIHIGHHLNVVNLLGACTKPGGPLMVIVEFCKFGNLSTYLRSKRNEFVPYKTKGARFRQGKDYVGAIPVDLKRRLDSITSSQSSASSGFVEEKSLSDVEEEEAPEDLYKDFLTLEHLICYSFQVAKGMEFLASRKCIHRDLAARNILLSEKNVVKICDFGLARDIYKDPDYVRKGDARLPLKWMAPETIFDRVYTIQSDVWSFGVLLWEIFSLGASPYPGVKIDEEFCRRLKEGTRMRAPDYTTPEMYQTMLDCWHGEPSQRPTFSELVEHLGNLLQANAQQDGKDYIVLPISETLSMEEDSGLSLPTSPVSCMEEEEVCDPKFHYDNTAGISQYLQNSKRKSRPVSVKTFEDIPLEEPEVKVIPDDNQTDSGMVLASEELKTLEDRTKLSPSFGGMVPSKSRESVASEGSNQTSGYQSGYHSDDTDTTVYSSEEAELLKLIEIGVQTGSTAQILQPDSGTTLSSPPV
Description: Inhibition of recombinant human N-terminal GST-tagged VEGFR2 (789 to end residues) expressed in baculovirus infected Sf9 insect cells using Poly (4:1 Glu,Tyr) as substrate measured after 1 hr by ADP-Glo kinase assay

IC50 [1] [µM] | IC50 [2] [µM] | IC50 [4] [µM] | Compound | Ratio IC50 [3]
25.6 | > 100 | – | COc1ccc(NC(=O)c2cc(Oc3ccc(/C=C/c4ccncc4)cc3)ccn2)cc1 | >3.9
79.7 | > 100 | – | O=C(Nc1ccccc1)c1cc(Oc2ccc(/C=C/c3ccncc3)cc2)ccn1 | >1.2
17.3 | 31 | – | O=C(NC1CC1)c1cc(Oc2ccc(/C=C/c3ccccn3)cc2)ccn1 | 1.8
13.2 | 18.2 | 0.29 | CNC(=O)c1cc(Oc2ccc(/C=C/c3ccncc3)cc2)ccn1 | 1.4
20.6 | 33.7 | – | CC(C)NC(=O)c1cc(Oc2ccc(/C=C/c3ccncc3)cc2)ccn1 | 1.6
16.8 | 22.4 | 1.22 | O=C(NC1CCCCC1)c1cc(Oc2ccc(/C=C/c3ccncc3)cc2)ccn1 | 1.3
35.5 | 77.5 | – | O=C(NC1CC1)c1cc(Oc2ccc(/C=C/c3ccncc3)cc2)ccn1 | 2.2
18.6 | 41.6 | – | O=C(c1cc(Oc2ccc(/C=C/c3ccncc3)cc2)ccn1)N1CCCC1 | 2.2
12.5 | 20.6 | 0.53 | O=C(NC1CCCCC1)c1cc(Oc2ccc(/C=C/c3ccccn3)cc2)ccn1 | 1.6
17 | 28.9 | – | O=C(NCc1ccccc1)c1cc(Oc2ccc(/C=C/c3ccncc3)cc2)ccn1 | 1.7
19.3 | > 100 | – | COc1ccc(CNC(=O)c2cc(Oc3ccc(/C=C/c4ccncc4)cc3)ccn2)cc1 | >5.2
18.2 | 37.2 | – | O=C(NCc1ccc(F)cc1)c1cc(Oc2ccc(/C=C/c3ccncc3)cc2)ccn1 | 2
62.1 | 56.2 | – | O=C(Nc1ccc(Cl)cc1)c1cc(Oc2ccc(/C=C/c3ccncc3)cc2)ccn1 | 0.9

The remaining lines, values behind:

Compound | IC50 [1] [µM] | IC50 [2] [µM] | IC50 [4] [µM] | Ratio IC50 [3]
O=C(c1cc(Oc2ccc(/C=C/c3ccccn3)cc2)ccn1)N1CCCC1 | 15.6 | 27 | – | 1.7
O=C(Nc1ccccc1)c1cc(Oc2ccc(/C=C/c3ccccn3)cc2)ccn1 | 19.1 | 30.2 | – | 1.6
CNC(=O)c1cc(Oc2ccc(NC(=O)Nc3ccc(Cl)c(C(F)(F)F)c3)cc2)ccn1 [SORAFENIB] | 19.3 | 29 | – | –
CC(C)NC(=O)c1cc(Oc2ccc(/C=C/c3ccccn3)cc2)ccn1 | 21.4 | > 100 | – | >4.7
CNC(=O)c1cc(Oc2ccc(/C=C/c3ccccn3)cc2)ccn1 | 17.4 | 21.6 | 0.87 | 1.2
COc1ccc(NC(=O)c2cc(Oc3ccc(/C=C/c4ccccn4)cc3)ccn2)cc1 | 20 | 30 | – | 1.5
COc1ccc(CNC(=O)c2cc(Oc3ccc(/C=C/c4ccccn4)cc3)ccn2)cc1 | 63.6 | 26 | – | 0.4
O=C(Nc1ccc(Cl)cc1)c1cc(Oc2ccc(/C=C/c3ccccn3)cc2)ccn1 | 16.2 | 31.3 | – | 1.9
O=C(NCc1ccc(F)cc1)c1cc(Oc2ccc(/C=C/c3ccccn3)cc2)ccn1 | > 100 | 45.1 | – | <0.5
O=C(NCc1ccccc1)c1cc(Oc2ccc(/C=C/c3ccccn3)cc2)ccn1 | 18.8 | 27.9 | – | 1.5
